{"source": "paper PMC12139422", "about": "“Structural basis for phosphatidylcholine synthesis by bacterial phospholipid N-methyltransferases” (The Journal of Biological Chemistry, 2025)", "key": {"AtPmtAΔN25 [1]": {"molecular_target": "T1, AtPmtAΔN25 (Agrobacterium fabrum, UniProt A9CKE9)", "T1 construct": "gene Atu0300; lacks residues 1-25 (N-terminal amphipathic helix); N-terminal His6-tag cut with HRV 3C protease; expressed in E. coli C43(DE3); full length 197 residues; four molecules in the asymmetric unit", "T1 sequence (A9CKE9 26-197)": "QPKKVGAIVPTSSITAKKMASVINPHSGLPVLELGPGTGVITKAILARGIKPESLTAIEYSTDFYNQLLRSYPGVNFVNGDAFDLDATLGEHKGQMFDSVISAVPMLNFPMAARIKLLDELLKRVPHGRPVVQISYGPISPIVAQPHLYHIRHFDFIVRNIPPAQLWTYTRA", "assay": "X-ray crystal structure ([…] Å) and 1H-15N HSQC NMR titration", "type": "binding", "conditions": "cocrystallised at 10:1 ligand-to-protein, pH 8.0, 20 °C; NMR titration 0-10 equivalents, pH 7.0, 10 °C; SAM site (Gly-rich loop)"}, "AtPmtAΔN25 [2]": {"molecular_target": "T1, AtPmtAΔN25", "assay": "X-ray crystal structure ([…] Å)", "type": "binding", "conditions": "cocrystallised with SAM at 10:1 ligand-to-protein, pH 8.0, 20 °C; density assigned to MTA as SAM cleavage product; SAM site"}}}
{"smiles": "Nc1ncnc2c1ncn2[C@@H]1O[C@H](CSCC[C@H](N)C(=O)O)[C@@H](O)[C@H]1O", "note": "[SAH]", "values": [{"measurement": "X-ray crystal structure (1.95 Å) and 1H-15N HSQC NMR titration", "setting": "AtPmtAΔN25 [1]", "value": "All four AtPmtAΔN25 molecules in the asymmetric unit contained SAH molecules with clear electron densities"}]}
{"smiles": "CSC[C@H]1O[C@@H](n2cnc3c(N)ncnc32)[C@H](O)[C@@H]1O", "note": "[5′-methylthioadenosine]", "values": [{"measurement": "X-ray crystal structure (2.04 Å)", "setting": "AtPmtAΔN25 [2]", "value": "Therefore, we assigned the electron density to MTA"}]}
